Measured values taken from patent US20120251628A1, “COMPOSITIONS AND METHODS FOR TREATMENT OF CANCER” (priority 2011, published 2012).

Assays:
[1] = system: CT26 colon carcinoma cells; test: Observation of necrosis in tumor tissues after treatment (tumor images); type: in vivo; conditions: 10 mg/kg intraperitoneal; discolored at 24 hours after injection; BALB/c mice
Experimental: Seven-week-old, female, specific-pathogen-free (BALB/c) white mice (weight: approximately 20 g) purchased from ORIENTBIO Inc. (Seoul Korea) were subcutaneously injected with 2×10^6 of CT26 colon carcinoma cells per mouse. When the tumor size became 3 mm in diameter, the control group was injected with a phosphate buffered saline (PBS) solution with 5% dextrose while the experimental group was intraperitoneally injected with 100 μL of sodium meta arsenite at a concentration of 10 mg/kg with 5% dextrose. After injection, the measurements of the size of tumors (volume=πab^2/6, where a and b are diameters of tumors) by using the caliper once every two days and the images of the tumors were recorded for 15 days. While the discoloration of the tissues of the mice injected without sodium meta arsenite was not observed for a certain period of time, the central part of tumors in the tissues of the white mice injected with sodium meta arsenite became discolored at 24 hours after the injection of sodium meta arsenite. As time went by, it was observed that the tumors became discolored regardless of the injection of sodium meta arsenite.

[2] = system: HUVECs; test: Cytotoxicity test of HUVECs (CellTiter 96 Aqueous One Solution); type: cell-based, Human
Experimental: (§1) To determine the effect, if any, of sodium meta arsenite on vascularization, the effect on endothelial cells (which are essential for vascularization) was first analyzed. Human umbilical cord vein endothelial cells (HUVECs offered by ATCC) were cultivated in 96-well microculture plates containing F-12K (Sigma) medium supplemented with 10% FBS and endothelial cell growth supplement (ECGS, E2759, Sigma). For the cytotoxicity test of the cells after 24 hour cultivation, the cells were treated with KML001 at the concentration of 0.1 nM, 1 nM, 10 nM, 1 uM, 10 uM and 100 uM. At 24 hours and 48 hours after treatment, 20 μl/well of CellTiter 96® Aqueous One Solution (by Promega) Reagent was added on each well and reacted for one hour at 37° C. The reacted 96-well plates were measured at 490 nm using a spectrophotometer (UVStar, Greiner Bio-One). To analyze apoptosis of HUVECs, the cells were cultivated on F25 flasks using the same method as discussed above and then the cells were treated with sodium meta arsenite at a concentration of 10 uM, 20 uM and 50 uM. Cells were collected after 24 and 48 hours. The collected cells were stained for 30 minutes with Annexin-V for FACS analysis. After two washes, the cells were analyzed by using flow cytometry (FACSCALIBUR, BECTON DICLINSON).

[3] = system: HUVECs; test: Apoptosis of HUVECs (Annexin-V FACS analysis); type: cell-based, Human
Experimental: as §1

[4] = system: α-tubulin; test: Western blot of isolated (soluble) and polymerized tubulin from HUVECs; type: cell-based, Human; conditions: 1 uM, 10 uM and 20 uM, 24 hours, higher concentration
Excerpt: To investigate whether such apoptosis phenomenon is caused by a cytoskeletal abnormality that affects cell division and cell differentiation, the change in α-tubulin expression in the cytoskeleton was identified by the division of tubulin into isolated form (soluble, S) and polymerized form (ppt, P). HUVECs (obtained from ATCC) were cultivated in F25 culture flasks containing F-12K (Sigma) medium supplemented with 10% FBS and endothelial cell growth supplement (ECGS, E2759, Sigma). After cultivation for 24 hours, the cells were treated with sodium meta arsenite at a concentration of 1 uM, 10 uM and 20 uM. Cells were collected 24 hours after treatment. The collected cells were suspended in RIPA buffer (50 mM Tris, pH 7.5, 150 mM NaCl, 1% NP-40, 0.5% sodium deoxychloate, 0.1% SDS, protease inhibitor) at room temperature for 10 minutes and then centrifuged for 30 minutes at 22° C. at 13,200 rpm to separate the supernatant liquid from the sediment. RIPA solution was added to the sediment in the same amount and the sediment was crushed using an ultrasonic cell crusher. The protein from the supernatant liquid and the sediment were assayed using a BCA protein kit (Thermo, 23227) and then the same amount of protein (3 μg) was mixed with protein sample buffer and it was warmed up in a water bath in boiling water at 100° C. for five minutes. SDS-PAGE was conducted on a 10% gel. […]

[5] = system: microtubules; test: Immunohistochemistry of microtubules in HUVECs (confocal microscopy); type: cell-based, Human; conditions: 1 uM, 5 uM and 10 uM, 24 and 48 hours, concentration dependent
Experimental: HUVECs were cultured in a confocal dish (made by SPL, Korea) with F-12K (Sigma) medium containing 10% FBS and endothelial cell growth supplement (ECGS, E2759, Sigma). After cultivation for 24 hours, the cells were treated with sodium meta arsenite at a concentration of 1 uM, 5 uM and 10 uM. At 24 hours and 48 hours after treatment, the cells were fixed with 3.7% paraformaldehyde at room temperature for 10 minutes. After washing with phosphate buffered saline (PBS) solution three times, the cells were treated with 0.15% Triton X-100 for 15 minutes and then washed three times with PBS solution. After blocking with 2% bovine serum albumin (BSA, Sigma) at room temperature for 60 minutes, the cells were washed three times with PBS solution. Monoclonal antibody against α-tubulin (SantaCruze, sc-32293) was reacted with the cells at room temperature for one hour and then the cells were washed three times with the PBS solution. The cells were then reacted with rat anti-mouse IgG1 secondary antibody (Pharmigen, #A85-1) conjugated to FITC. After being washed three times with PBS solution, they were analyzed using a confocal laser scanning microscope (OLYMPUS FV500,1×81).

SMILES: O=[As][O-].[Na+] [sodium meta arsenite]
- discoloration of the central part of tumors due to necrosis [1]: the tissues in the central part became discolored due to necrosis
- concentration at which cytotoxicity was observed ([2]; 24 and 48 hours after treatment, tested 0.1 nM to 100 uM): 10 µM
- cytotoxicity over time ([2]; 24 hours vs 48 hours): significantly increased over time
- apoptosis, dependence on concentration ([3]; 10 uM, 20 uM and 50 uM): concentration dependent, increasing with increased concentration
- apoptosis over time ([3]; 24 and 48 hours exposure): increased over time
- protein level in sediment (polymerized tubulin) [4]: reduced the protein level
- protein level in supernatant liquid (isolated tubulin) [4]: reduced the protein level
- total amount of microtubules [5]: reduction in the total amount of microtubules
